# Laboratory results from patent US9040528B2, “Chemical compounds 542” (AstraZeneca AB, priority 2008, dated 2015).
# Target: Escherichia coli DNA gyrase A/B tetramer (Escherichia coli (strain K12), UniProt P0AES4+P0AES6)
# Test: DNA gyrase supercoiling activity fluorescence polarisation assay
# Type: biochemical
# Details: not given
# Summary of the method: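 Supercoiling reactions quenched with 40 nM 5′-BODIPY-FL triplex-forming oligonucleotide probe in pH 3.5 NaCl/sodium acetate buffer; after 60 min, fluorescence anisotropy read (ex 485/em 535 nm). IC50 by nonlinear regression, normalised to 0.8% DMSO (100% activity) and 5 μM ciprofloxacin (0% activity).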
row,SMILES,IC50 [nM]
1,"C[C@@H]1CN2c3c(cc4c(OC(=O)OC(C)(C)C)noc4c3F)CC3(C(=O)NC(=O)NC3=O)[C@H]2[C@H](C)O1 (relative stereo) [Example 102, tert-butyl(2R,4S,4aS)-rel-11-fluoro-2,4-dimethyl-2′,4′,6′-trioxo-1,1′,2,3′,4,4′,4a,6′-octahydro-2′H,6H-spiro[isoxazolo[4,5-g][1,4]oxazino[4,3-a]quinoline-5,5′-pyrimidin]-8-yl carbonate]",2700

# Same assay, conditions: 5 nM enzyme, relaxed plasmid, 0.3 mM ATP, ambient temperature; read-out: E. coli DNA gyrase supercoiling IC50
row,SMILES,IC50 [nM]
1,"C[C@@H]1CN2c3c(cc4c(-n5cc(C(=O)N(C)C)cn5)noc4c3F)CC3(C(=O)NC(=O)NC3=O)[C@H]2[C@H](C)O1 (relative stereo) [Example 187, 1-[(2R,4S,4aS)-rel-11-fluoro-2,4-dimethyl-2′,4′,6′-trioxo-1,1′,2,3′,4,4′,4a,6′-octahydro-2′H,6H-spiro[1,4-oxazino[4,3-a][1,2]oxazolo[4,5-g]quinoline-5,5′-pyrimidin]-8-yl]-N,N-dimethyl-1H-pyrazole-4-carboxamide]",3300
2,"Cc1noc2c(Cl)c3c(cc12)CC1(C(=O)NC(=O)NC1=O)[C@H]1[C@H](C)O[C@H](C)CN31 (relative stereo) [Example 7, (2R,4S,4aS)-rel-11-chloro-2,4,8-trimethyl-1,2,4,4a-tetrahydro-2′H,6H-spiro[1,4-oxazino[4,3-a][1,2]oxazolo[4,5-g]quinoline-5,5′-pyrimidine]-2′,4′,6′(1′H,3′H)-trione]",400
3,"C[C@H]1CN2c3c(cc4c(-c5cccnn5)noc4c3F)CC3(C(=O)NC(=O)NC3=O)[C@@H]2[C@@H](C)O1 (relative stereo) [Example 73, (2R,4S,4aS)-rel-11-fluoro-2,4-dimethyl-8-(pyridazin-3-yl)-1,2,4,4a-tetrahydro-2′H,6H-spiro[1,4-oxazino[4,3-a][1,2]oxazolo[4,5-g]quinoline-5,5′-pyrimidine]-2′,4′,6′(1′H,3′H)-trione]",500
4,"C[C@@H]1CN2c3c(cc4c(N5CCNCC5)noc4c3F)CC3(C(=O)NC(=O)NC3=O)[C@H]2[C@H](C)O1 (relative stereo) [Example 179, (2R,4S,4aS)-rel-11-fluoro-2,4-dimethyl-8-(piperazin-1-yl)-1,2,4,4a-tetrahydro-2′H,6H-spiro[isoxazolo[4,5-g][1,4]oxazino[4,3-a]quinoline-5,5′-pyrimidine]-2′,4′,6′(1′H,3′H)-trione]",2000
5,"C[C@@H]1CN2c3c(cc4c(-c5ccnc(C#N)n5)noc4c3F)CC3(C(=O)NC(=O)NC3=O)[C@H]2[C@H](C)O1 [Example 173, 4-((2R,4S,4aS)-11-fluoro-2,4-dimethyl-2′,4′,6′-trioxo-2,2′,3′,4,4a,4′,6,6′-octahydro-1H,1′H-spiro[isoxazolo[4,5-g][1,4]oxazino[4,3-a]quinoline-5,5′-pyrimidine]-8-yl)pyrimidine-2-carbonitrile]",100
6,"C[C@@H]1CN2c3c(cc4c(-c5ccnc(N)n5)noc4c3F)CC3(C(=O)NC(=O)NC3=O)[C@H]2[C@H](C)O1 [Example 174, (2R,4S,4aS)-8-(2-aminopyrimidin-4-yl)-11-fluoro-2,4-dimethyl-2,4,4a,6-tetrahydro-1H,1′H-spiro[isoxazolo[4,5-g][1,4]oxazino[4,3-a]quinoline-5,5′-pyrimidine]-2′,4′,6′(3′H)-trione]",500
7,"C[C@@H]1CN2c3c(cc4c(C(F)F)noc4c3F)CC3(C(=O)NC(=O)NC3=O)[C@H]2[C@H](C)O1 (racemic) [Example 93, (2R,4S,4 aS)-rel-8-(difluoromethyl)-11-fluoro-2,4-dimethyl-2,4,4a,6-tetrahydro-1H,1′H-spiro[isoxazolo[4,5-g][1,4]oxazino[4,3-a]quinoline-5,5′-pyrimidine]-2′,4′,6′(3′H)-trione]",700
8,"C[C@@H]1CN2c3c(cc4c(-c5ccnc(N6CCOCC6)n5)noc4c3F)CC3(C(=O)NC(=O)NC3=O)[C@H]2[C@H](C)O1 [Example 176, (2R,4S,4aS)-11-fluoro-2,4-dimethyl-8-(2-morpholinopyrimidin-4-yl)-2,4,4a,6-tetrahydro-1H,1′H-spiro[isoxazolo[4,5-g][1,4]oxazino[4,3-a]quinoline-5,5′-pyrimidine]-2′,4′,6′(3′H)-trione]",3200
9,"C[C@@H]1CN2c3c(cc4c(C(F)(F)F)noc4c3F)CC3(C(=O)NC(=O)NC3=O)[C@H]2[C@H](C)O1 [Example 92(b), (2R,4S,4aS)-11-fluoro-2,4-dimethyl-8-(trifluoromethyl)-2,4,4a,6-tetrahydro-1H,1′H-spiro[isoxazolo[4,5-g][1,4]oxazino[4,3-a]quinoline-5,5′-pyrimidine]-2′,4′,6′(3′H)-trione]",600
10,"Cc1cc(CNc2noc3c(F)c4c(cc23)CC2(C(=O)NC(=O)NC2=O)[C@H]2[C@H](C)O[C@H](C)CN42)no1 (relative stereo) [Example 13, (2R,4S,4aS)-rel-11-fluoro-2,4-dimethyl-8-{[(5-methyl-1,2-oxazol-3-yl)methyl]amino}-1,2,4,4a-tetrahydro-2′H,6H-spiro[1,4-oxazino[4,3-a][1,2]oxazolo[4,5-g]quinoline-5,5′-pyrimidine]-2′,4′,6′(1′H,3′H)-trione]",1700
11,"C[C@@H]1CN2c3c(cc4c(N5CCN(C(=O)OC(C)(C)C)CC5)noc4c3F)CC3(C(=O)NC(=O)NC3=O)[C@H]2[C@H](C)O1 (relative stereo) [Example 20, tert-butyl 4-[(2R,4S,4aS)-rel-11-fluoro-2,4-dimethyl-2′,4′,6′-trioxo-1,1′,2,3′,4,4′,4a,6′-octahydro-2′H,6H-spiro[isoxazolo[4,5-g][1,4]oxazino[4,3-a]quinoline-5,5′-pyrimidin]-8-yl]piperazine-1-carboxylate]",20000
12,"CNC(=O)c1noc2c(F)c3c(cc12)CC1(C(=O)NC(=O)NC1=O)[C@H]1[C@H](C)O[C@H](C)CN31 (relative stereo) [Example 140, (2R,4S,4aS)-rel-11-fluoro-N,2,4-trimethyl-2′,4′,6′-trioxo-2,2′,3′,4,4a,4′,6,6′-octahydro-1H,1′H-spiro[isoxazolo[4,5-g][1,4]oxazino[4,3-a]quinoline-5,5′-pyrimidine]-8-carboxamide]",1100
13,"C[C@@H]1CN2c3c(cc4c(-c5ncccn5)noc4c3F)CC3(C(=O)NC(=O)NC3=O)[C@H]2[C@H](C)O1 (relative stereo) [Example 148, (2R,4S,4aS)-rel-11-fluoro-2,4-dimethyl-8-(pyrimidin-2-yl)-1,2,4,4a-tetrahydro-2′H,6H-spiro[1,4-oxazino[4,3-a][1,2]oxazolo[4,5-g]quinoline-5,5′-pyrimidine]-2′,4′,6′(1′H,3′H)-trione]",900
14,"CC(C)NC(=O)c1noc2c(F)c3c(cc12)CC1(C(=O)NC(=O)NC1=O)[C@H]1[C@H](C)O[C@H](C)CN31 (relative stereo) [Example 147, (2R,4S,4aS)-rel-11-fluoro-N-isopropyl-2,4-dimethyl-2′,4′,6′-trioxo-2,2′,3′,4,4a,4′,6,6′-octahydro-1H,1′H-spiro[isoxazolo[4,5-g][1,4]oxazino[4,3-a]quinoline-5,5′-pyrimidine]-8-carboxamide]",3900
15,"C[C@@H]1CN2c3c(cc4c(C(=O)N5CCCCO5)noc4c3F)CC3(C(=O)NC(=O)NC3=O)[C@H]2[C@H](C)O1 (relative stereo) [Example 153, (2R,4S,4aS)-rel-11-fluoro-2,4-dimethyl-8-(1,2-oxazinan-2-ylcarbonyl)-1,2,4,4a-tetrahydro-2′H,6H-spiro[isoxazolo[4,5-g][1,4]oxazino[4,3-a]quinoline-5,5′-pyrimidine]-2′,4′,6′(1′H,3′H)-trione]",3700
16,"C[C@@H]1CN2c3c(nc4c(C(=O)NCC(C)(C)C)noc4c3Cl)CC3(C(=O)NC(=O)NC3=O)[C@H]2[C@H](C)O1 (relative stereo) [Example 129, (2R,4S,4aS)-rel-11-Chloro-2,4-dimethyl-N-neopentyl-2′,4′,6′-trioxo-2,2′,3′,4,4a,4′,6,6′-octahydro-1H,1′H-spiro[isoxazolo[4,5-g][1,4]oxazino[4,3-a][1,5]naphthyridine-5,5′-pyrimidine]-8-carboxamide]",31000
17,"C[C@@H]1CN2c3c(cc4c(-n5cc(C(=O)O)cn5)noc4c3F)CC3(C(=O)NC(=O)NC3=O)[C@H]2[C@H](C)O1 (relative stereo) [Example 186, 1-[(2R,4S,4aS)-rel-11-fluoro-2,4-dimethyl-2′,4′,6′-trioxo-1,1′,2,3′,4,4′,4a,6′-octahydro-2′H,6H-spiro[1,4-oxazino[4,3-a][1,2]oxazolo[4,5-g]quinoline-5,5′-pyrimidin]-8-yl]-1H-pyrazole-4-carboxylic acid]",7600
18,"C[C@@H]1CN2c3c(cc4c(-c5cncnc5)noc4c3Cl)CC3(C(=O)NC(=O)NC3=O)[C@H]2[C@H](C)O1 (racemic) [Example 44, (2R,4S,4 aS)-rel-11-chloro-2,4-dimethyl-8-(pyrimidin-5-yl)-1,2,4,4a-tetrahydro-2′H,6H-spiro[1,4-oxazino[4,3-a][1,2]oxazolo[4,5-g]quinoline-5,5′-pyrimidine]-2′,4′,6′(1′H,3′H)-trione]",1000
19,"C[C@@H]1CN2c3c(cc4c(-c5ccnc(O)n5)noc4c3F)CC3(C(=O)NC(=O)NC3=O)[C@H]2[C@H](C)O1 [Example 175, (2R,4S,4aS)-11-fluoro-8-(2-hydroxypyrimidin-4-yl)-2,4-dimethyl-1,2,4,4a-tetrahydro-2′H,6H-spiro[isoxazolo[4,5-g][1,4]oxazino[4,3-a]quinoline-5,5′-pyrimidine]-2′,4′,6′(1′H,3′H)-trione]",900
20,"C[C@@H]1CN2c3c(nc4c(-c5cncs5)noc4c3Cl)CC3(C(=O)NC(=O)NC3=O)[C@H]2[C@H](C)O1 (relative stereo) [Example 115, (2R,4S,4aS)-rel-11-chloro-2,4-dimethyl-8-(thiazol-5-yl)-2,4,4a,6-tetrahydro-1H,1′H-spiro[isoxazolo[4,5-g][1,4]oxazino[4,3-a][1,5]naphthyridine-5,5′-pyrimidine]-2′,4′,6′(3′H)-trione]",1100
